# Reference: PubChem BioAssay AID624491 (Broad Institute, 2012)
# Test system: D54 ERlucT glycosylation luciferase reporter, luminescence, 24 h
# Assay: blockers of NLG process in reporter cells – D54 ERlucT cells, luminescence, cherry-picks, dose response (AID 624491);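 note: signal gain reflects blocked N-linked glycosylation of a luciferase reporter; actives raise luciferase signal so AC26 marks activators of the reporter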
row,Compound,AC26 [nM]
1,Cc1cccn2c(=O)c3cc(C(=O)NCCN4CCOCC4)c(=N)n(CCc4ccccc4)c3nc12,8760
2,COc1cc(-c2noc(C)c2/C=C/c2ccc(OC(C)=O)cc2)cc(OC)c1OC,494
3,COc1ccc(CNCC(=O)Nc2ccccc2-n2cccc2)cc1,922
4,CN(C)CCc1cc2c(c3c1ccc1ccccc13)OCO2,5320
5,COc1cc2c(C#N)c(N3CCc4ccccc4C3)nc(N)c2c(N)n1,6220
6,Cc1ccc(-c2nn3c(C)nnc3c3ccccc23)cc1S(=O)(=O)N(C)CCO,4210
7,Cc1ccc(C(c2cc(Cl)c3cccnc3c2O)N2CCN(C)CC2)cc1 (stereo not drawn),1280
8,COc1cc(-c2nnc(SCC3(c4ccc(Br)cc4)OCCO3)o2)cc(OC)c1OC,210
9,COc1cc2c(cc1OC)-c1c3c(cc4c1[C@@H](C2)N(C)CC4)OCO3,17600
10,CCn1c(=O)c2cc(C(=O)NCCCOC)sc2c2ccccc21,2460
11,O=S(=O)([N-]c1nc2ccccc2nc1-n1cc[n+](Cc2ccccc2)c1)c1ccccc1,520
12,NC(=O)CC(NC(=O)Cc1ccc(Cl)cc1)c1ccc(NC2CCCC2)c([N+](=O)[O-])c1 (stereo not drawn),1840
13,COc1ccc(C2C(C(=O)Nc3cc(OC)c(OC)c(OC)c3)c3ccccc3C(=O)N2C)cc1 (stereo not drawn),5180
14,O=C(NCc1ccc(F)c(F)c1)C1Cc2c(-c3ccc4c(c3)OCO4)ccnc2O1 (stereo not drawn),2750
15,CC(=O)OC12COC1CC(O)C1(C)C(=O)C(O)C3=C(C)C(O)CC(O)(C(OC(=O)c4ccccc4)C21)C3(C)C (stereo not drawn),1120
16,c1ccc(CNc2ncnc3c2cnn3-c2ccccc2)cc1,8130
17,c1ccc(-c2nc(-n3ccnc3)nc(-n3ccnc3)n2)cc1,2780
18,Cc1cc(C(=O)N/N=C/c2c3ccccc3cc3ccccc23)n[nH]1,6680
19,C=CCn1c(SCc2c(C)noc2C)nc2sc(C)c(C)c2c1=O,891
20,CC(=O)Nc1ccc(Nc2ccc3c4c(cc(=O)n3C)-c3ccccc3C(=O)c24)cc1,730
21,Cc1ccc(C(=O)NCc2nnc(SCC(=O)NC(C)c3ccccc3)n2C)cc1 (stereo not drawn),3980
22,COc1ccc(C=CC(=O)c2ccc(OC)c(OC)c2O)cc1OC,4390
23,COc1ccccc1-c1csc(C(NC(C)=O)c2ccccc2)n1 (stereo not drawn),< 1.2
24,c1ccc(CNc2nc(-c3ccccc3)nc3ccccc23)cc1,1570
25,O=C(Nc1ccccc1N1CCOCC1)c1ccc2nc[nH]c2c1,1130
26,CCN(CC)CCC(=O)Nc1cccc2c1C(=O)c1ccccc1C2=O,965
27,NC(N)=N/N=C/c1ccc2cccc(OCc3ccccc3)c2n1,4150

row,Compound,AC26 [nM]
1,COc1cc(N)ccc1Nc1c2ccccc2nc2ccccc12,70
2,COc1ccc(C(=O)Nc2ccc3[nH]c(-c4cccc(OC)c4)cc(=O)c3c2)cc1,330
3,COc1ccc(NC(=O)c2oc3ccccc3c2NC(=O)c2ccco2)cc1,11700
4,Cc1[nH][nH]c(=O)c1C(c1ccc(-c2ccc(Cl)c(Cl)c2)o1)c1c(C)[nH][nH]c1=O,917
5,CC(=O)c1cccc(Nc2cc(C)nc3c(C)cccc23)c1,5870
6,CC(=O)c1cccc(-c2ccnc3c2CC(C(=O)NCc2ccc(F)c(F)c2)O3)c1 (stereo not drawn),1370
7,O=C(N/N=C/c1ccc(Cl)cc1)c1cc(-c2cccnc2)nc2ccccc12,417
8,COc1cccc(C(NC(C)=O)c2nc(-c3ccccc3C)cs2)c1 (stereo not drawn),774
9,COc1ccc2[nH]c(C(=O)N/N=C/c3ccccc3OC)cc2c1,1010
10,Cn1c(C(=O)NC2CCCCCC2)cc2c(=O)n(C)c3ccccc3c21,4470
11,COc1ccc(-c2cc(C(F)F)n3ncc(C(=O)N4CCc5ccccc54)c3n2)cc1,2500
12,CC(/C=N/NC(=O)c1cc(-c2ccc(C)s2)[nH]n1)=C\c1ccccc1,650
13,COc1cc(C(=O)OCC(C)=O)ccc1OCc1c(C)noc1C,3270
14,Cc1cc2nnc(SCC(=O)NCc3cccs3)n2c2ccccc12,1660
15,COc1ccc(C(=O)NCc2nnc(SCC(=O)NO)n2Cc2ccccc2)cc1,4440
16,CCN(CC)CCNc1ccc(CO)c2oc3ccccc3c(=O)c12,1280
17,COc1ccccc1N1CCN(c2ccc3c(c2)S(=O)(=O)c2cccc(C(=O)NCC4CC4)c2C3=O)CC1,4550
18,CCN(CC)CCOc1c(Br)ccc2c1sc1nc3n(c(=O)c12)CCC3,3070
19,COc1cccc(-c2cnc3c(NC=O)cc(-c4cc(C)c(O)c(C)c4)cn23)c1,2140
20,Cc1nnc(NC(=O)CSc2nc(C(C)C)nc3ccccc23)s1,971
21,COC(=O)[C@@H]1C[C@H]1[C@@H](NP(=O)(c1ccccc1)c1ccccc1)c1ccccc1,3650
22,CNc1ccc(Br)cc(C(=O)/C=C/c2ccc(Cl)cc2Cl)c1=O,8890
23,Cn1c(=O)n(C)c2cc(C(=O)Nc3ccc4c(c3)OCO4)ccc21,1740
24,Cc1ccc(Oc2ccc(S(=O)(=O)N3CCOCC3)cc2C(N)=O)c(-n2nc3ccccc3n2)c1,2770
25,COCCNC(=O)c1cc(-c2cccs2)on1,4600
26,COC(=O)c1c(NC(=O)c2cccnc2Cl)sc(C(=O)N(C)C)c1C,2090
